Laboratory results taken from patent publication US20180325106A1, “METHOD OF RETARDING AN ETHYLENE RESPONSE” (CURTIN UNIVERSITY OF TECHNOLOGY, priority 2015, published 2018).
Read-outs that look alike come from different tables or passages of the source.

Key:
[1] = system: 'Tegan Blue' Japanese plum fruit; test: Climacteric ethylene production in 'Tegan Blue' plum fruit after fumigation; assay type: in vivo; settings: for level of climacteric ethylene, suppressed, fold in comparison to the solely ethylene treated fruit: then ethylene 10 μL L^-1 24 hr, 'Tegan Blue' plum, P≤0.05
Method: Mature ‘Tegan Blue’ and ‘Fortune’ Japanese plum and ‘Arctic Pride’ nectarine fruits of uniform size and maturity, free from visual blemishes and diseases were harvested in early morning from a commercial orchard in Western Australia. Following the harvest, the fruit were brought to the Horticulture Research Laboratory, Curtin University, using a temperature controlled vehicle at 20-25° C. The fruit were treated by fumigation with 0 to 100 nLL^−1 of BC and 1000 nLL^−1 of 1-MCP (Tegan Blue plum) for 18 hr at ambient conditions (20±1° C. and 65±5% RH) by using hermetically sealed plastic containers of 60 L volume. Whatman filter paper (number 2) soaked with specific concentrations of BC and 1-MCP were kept along with the fruit and 30 g of soda lime inside each container. A small battery operated fan was used to ensure equal distribution of the vapours from the chemicals. Half of the treated fruit was exposed to ethylene (10 μL L^−1) for 24 hr following BC and 1-MCP treatment.
The endogenous level of ethylene was determined by using the Sensor Sense (Sensor sense B. V, Nijmegen, The Netherlands). The Sensor Sense includes an ETD 300 ethylene detector, a set of valve controllers with an option of six valves connected to six separate cuvettes [1.0 L air-tight jar, fitted with a rubber septum (SubaSeal®, Sigma-Aldrich Co., St. Louis, USA)]. The continuous flow method was used with coarse mode (conversion factor 99818, capacity to measure ethylene concentration at 0-500 ppm, sensitivity at <1%) of analysis. Each sample was run for 20 minutes with a flow rate of 4.0 L hour^−1 and the average reading of last 15 minutes was considered to calculate the concentration of ethylene and expressed as μmol […] h^−1.
(§1) The experimental data were analysed following one-way analysis of variance (ANOVA) by using Genstat 13 (release 13.1; Lawes Agricultural Trust, Rothamsted Experimental Station, Harpenden, UK). The effects of various treatments and their interactions were assessed and least significant differences (Fisher's LSD) were calculated by F test at 5% level of significance.

[2] = gas at room temperature; background statement; cited from earlier work
[3] = system: 'Tegan Blue' Japanese plum fruit; test: Climacteric respiration (CO2 production) in 'Tegan Blue' plum fruit; assay type: in vivo
Method: (§2) Mature ‘Tegan Blue’ and ‘Fortune’ Japanese plum and ‘Arctic Pride’ nectarine fruits of uniform size and maturity, free from visual blemishes and diseases were harvested in early morning from a commercial orchard in Western Australia. Following the harvest, the fruit were brought to the Horticulture Research Laboratory, Curtin University, using a temperature controlled vehicle at 20-25° C. The fruit were treated by fumigation with 0 to 100 nLL^−1 of BC and 1000 nLL^−1 of 1-MCP (Tegan Blue plum) for 18 hr at ambient conditions (20±1° C. and 65±5% RH) by using hermetically sealed plastic containers of 60 L volume. […]
(§3) Respiration rate was determined as carbon dioxide (CO2) production from the fruit during ripening period a using CO2 analyser. […] The respiration rate was calculated on the basis of the peak areas of 2.0 mL gas sample and CO2 standard (8.52±0.17%) and expressed as mmoL CO2 […] h^−1.
as §1

WX17 wax flower = test: Flower/bud abscission in WX17 wax flower; assay type: in vivo, Chamelaucium Desf.; settings: 100 nLL^-1 fumigation followed by ethylene 10 μLL^-1
Method: (§4) To evaluate the effects of BC and NC on flower abscission, flowering stems of Wax flower (Chamelaucium Desf.) (WX17, WX73 and WX107) were collected from mature bushes grown at Department of Agriculture and Food Western Australia (DAFWA), Perth (31° 58′ 55″ S/115° 51′ 47″ E). Collected stems were immediately placed upright in buckets with water and recut at 20-25 cm in length (from the cut end to the most extreme opened-flowers). The flower stalks were treated similarly as the fruits with BC (0-100 nLL^−1) or NC (0-100 nLL^−1) and ethylene. The experiments were laid out by following CRD design, having five replications for each treatment and five stalks in each replication. During the treatment period, the flower stalks were placed in small plastic bottles with distilled water. A cone made of nylon mesh was placed at the base of the stalks to check the number of abscised flowers. […]
as §1

[4] = Stability at room temperature; assay type: physicochemical
[5] = system: 'Arctic Pride' nectarine fruit; test: Climacteric respiration (CO2 production) in 'Arctic Pride' nectarine fruit; assay type: in vivo
Method: as §2, §3, §1

WX73 wax flower = test: Flower/bud abscission in WX73 wax flower; assay type: in vivo, Chamelaucium Desf.
Method: as §4, §1

[6] = system: 'Arctic Pride' nectarine fruit; test: Climacteric ethylene production in 'Arctic Pride' nectarine fruit after fumigation; assay type: in vivo; settings: 50 nLL^-1 fumigation, then ethylene 10 μL L^-1
Method: as §2
The endogenous level of ethylene was determined by using the Sensor Sense (Sensor sense B. V, Nijmegen, The Netherlands). […] Each sample was run for 20 minutes with a flow rate of 4.0 L hour^−1 and the average reading of last 15 minutes was considered to calculate the concentration of ethylene and expressed as μmol […] h^−1.
as §1

Solubility in water = assay type: physicochemical

| SMILES | level of climacteric ethylene, suppressed, fold in comparison to the solely ethylene treated fruit ([1]; 1000 nLL^-1 fumigation 18 hr) | stability [2] | climacteric respiration, suppressed, fold versus the solely ethylene treated fruit ([3]; 1000 μLL^-1 (so in the source) fumigation + ethylene) | rate of flower/bud abscission (WX17 wax flower) | stability [4] | respiration climacteric, suppression, fold in comparison to the solely ethylene treated fruit ([5]; 50 nLL^-1 fumigation + ethylene) | respiration climacteric, suppression, fold in comparison to the solely ethylene treated fruit ([5]; 50 nLL^-1 fumigation, no ethylene exposure) | level of climacteric ethylene, suppressed, fold in comparison to the solely ethylene treated fruit ([1]; 100 nLL^-1 fumigation 18 hr) | difference between effects of BC (100 nL L^-1) and 1-MCP (1000 nL L^-1) on climacteric ethylene and respiration ([1]; 'Tegan Blue' and 'Fortune' plum, 'Arctic Pride' nectarine, ethylene and respiration) | rate of flower/bud abscission (WX73 wax flower; 50 nL L^-1 fumigation followed by ethylene) | rate of flower/bud abscission (WX73 wax flower; 100 nL L^-1 fumigation followed by ethylene) | level of ethylene, suppressed, fold versus the solely ethylene treated fruit [6] | solubility in water (Solubility in water) | climacteric respiration, suppressed, fold versus the solely ethylene treated fruit ([3]; 100 nLL^-1 fumigation + ethylene) |
| --- | --- | --- | --- | --- | --- | --- | --- | --- | --- | --- | --- | --- | --- | --- |
| CC1=CC1 [1-MCP, 1-Methylcyclopropene, reference compound] | 0.70 fold | highly unstable | 0.77 fold | – | – | – | – | – | – | – | – | – | – | – |
| c1ccc2c(c1)C2 [BC, benzocyclopropene] | – | – | – | 6.05% | stable at room temperature for several months | 0.77 fold | 0.71 fold | 0.80 fold | non-significant differences | 22.43% | 28.40% | 0.63 fold | only partially soluble in water | 0.83 fold |
